Source: patent US20210101874A1, “MICROBIOCIDAL OXADIAZOLE DERIVATIVES” (SYNGENTA PARTICIPATIONS AG, priority 2017, published 2021)

Legend:
[1] = test system: Puccinia recondita f. sp. Tritici; experiment: Puccinia recondita f. sp. tritici / wheat / leaf disc preventative (brown rust); assay type: in vivo; conditions: foliar, 200 ppm in the applied formulation, wheat leaf segments cv. Kanzler, inoculated 1 day after application, compared to untreated, assessed 7 to 9 days after application, read-out: disease control
How it was run: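 Single evaluation 7–9 d after spraying: % disease control compared with untreated leaf segments. Protocol: cv. Kanzler segments, preventative spray at 200 ppm, spore inoculation at day 1, 19° C., 75% rh, 12 h light/12 h dark.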

[2] = test system: Puccinia recondita f. sp. Tritici; experiment: Puccinia recondita f. sp. tritici / wheat / leaf disc curative (brown rust); assay type: in vivo; conditions: foliar, 200 ppm in the applied formulation, wheat leaf segments cv. Kanzler, applied 1 day after inoculation, compared to untreated, assessed 6 to 8 days after application, read-out: disease control
Procedure: Leaf disks or leaf segments of various plant species are cut from plants grown in a greenhouse. The cut leaf disks or segments are placed in multiwell plates (24-well format) onto water agar. The leaf disks are sprayed with a test solution before (preventative) or after (curative) inoculation. Compounds to be tested are prepared as DMSO solutions (max. 10 mg/ml) which are diluted to the appropriate concentration with 0.025% Tween20 just before spraying. The inoculated leaf disks or segments are incubated under defined conditions (temperature, relative humidity, light, etc.) according to the respective test system. A single evaluation of disease level is carried out 3 to 14 days after inoculation, depending on the pathosystem. Percent disease control relative to the untreated check leaf disks or segments is then calculated.
Wheat leaf segments cv. Kanzler are placed on agar in multiwell plates (24-well format). The leaf segments are then inoculated with a spore suspension of the fungus. Plates were stored in darkness at 19° C. and 75% relative humidity. The formulated test compound diluted in water was applied 1 day after inoculation. The leaf segments were incubated at 19° C. and 75% relative humidity under a light regime of 12 hours light/12 hours darkness in a climate cabinet and the activity of a compound was assessed as percent disease control compared to untreated when an appropriate level of disease damage appears in untreated check leaf segments (6 to 8 days after application).
The following compounds at 200 ppm in the applied formulation give at least 80% disease control in this test when compared to untreated control leaf disks under the same conditions, which show extensive disease development.

[3] = test system: Glomerella lagenarium (Colletotrichum lagenarium); experiment: Glomerella lagenarium (Colletotrichum lagenarium) liquid culture / cucumber / preventative (anthracnose); assay type: cell-based; conditions: Colletotrichum orbiculare; 20 ppm in the applied formulation; conidia in PDB nutrient broth, 24° C.; 3 to 4 days after application; compared to untreated; read-out: disease control (inhibition of growth measured photometrically)
How it was run: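 Cryostored conidia in potato dextrose broth added to compound diluted from DMSO solution, 96-well format. Plates incubated at 24 °C. Growth inhibition read photometrically 3 to 4 days after application, as percent activity versus untreated check.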

C=CCS(=O)(=O)N(CC)Cc1ccc(-c2noc(C(F)(F)F)n2)cc1 [Compound 1.34, N-ethyl-N-[[4-[5-(trifluoromethyl)-1,2,4-oxadiazol-3-yl]phenyl]methyl] prop-2-ene-1-sulfonamide]
≥ 80%: pest or weed control at 200 ppm [1] | pest or weed control at 200 ppm [2] | inhibition at 20 ppm [3]

CCN(Cc1ccc(-c2noc(C(F)(F)F)n2)cc1)S(=O)(=O)CC1CCOC1 (stereo not drawn) [Compound 1.35, N-ethyl-1-tetrahydrofuran-3-yl-N-[[4-[5-(trifluoromethyl)-1,2,4-oxadiazol-3-yl]phenyl]methyl] methanesulfonamide]
≥ 80%: pest or weed control at 200 ppm [1] | pest or weed control at 200 ppm [2] | inhibition at 20 ppm [3]

CCN(Cc1ccc(-c2noc(C(F)(F)F)n2)cc1)S(=O)(=O)CCOC [Compound 1.37, N-ethyl-2-methoxy-N-[[4-[5-(trifluoromethyl)-1,2,4-oxadiazol-3-yl]phenyl]methyl] ethanesulfonamide]
≥ 80%: pest or weed control at 200 ppm [1] | pest or weed control at 200 ppm [2] | inhibition at 20 ppm [3]

C/C=C/S(=O)(=O)N(CC)Cc1ccc(-c2noc(C(F)(F)F)n2)cc1 [Compound 1.39, (E)-N-ethyl-N-[[4-[5-(trifluoromethyl)-1,2,4-oxadiazol-3-yl]phenyl]methyl] prop-1-ene-1-sulfonamide]
≥ 80%: pest or weed control at 200 ppm [1] | pest or weed control at 200 ppm [2] | inhibition at 20 ppm [3]

CN(Cc1ccc(-c2noc(C(F)(F)F)n2)cc1)S(=O)(=O)c1ccn(C)n1 [Compound 1.41, N,1-dimethyl-N-[[4-[5-(trifluoromethyl)-1,2,4-oxadiazol-3-yl]phenyl]methyl] pyrazole-3-sulfonamide]
≥ 80%: pest or weed control at 200 ppm [1] | pest or weed control at 200 ppm [2] | inhibition at 20 ppm [3]

C=CCS(=O)(=O)N(C)Cc1ccc(-c2noc(C(F)(F)F)n2)cc1 [Compound 1.46, N-methyl-N-[[4-[5-(trifluoromethyl)-1,2,4-oxadiazol-3-yl]phenyl]methyl] prop-2-ene-1-sulfonamide]
≥ 80%: pest or weed control at 200 ppm [1] | pest or weed control at 200 ppm [2] | inhibition at 20 ppm [3]

CN(Cc1ccc(-c2noc(C(F)(F)F)n2)cc1)S(=O)(=O)CC1CCOC1 (stereo not drawn) [Compound 1.47, N-methyl-1-tetrahydrofuran-3-yl-N-[[4-[5-(trifluoromethyl)-1,2,4-oxadiazol-3-yl]phenyl]methyl] methanesulfonamide]
≥ 80%: pest or weed control at 200 ppm [1] | pest or weed control at 200 ppm [2] | inhibition at 20 ppm [3]

COCCS(=O)(=O)N(C)Cc1ccc(-c2noc(C(F)(F)F)n2)cc1 [Compound 1.49, 2-methoxy-N-methyl-N-[[4-[5-(trifluoromethyl)-1,2,4-oxadiazol-3-yl]phenyl]methyl] ethanesulfonamide]
≥ 80%: pest or weed control at 200 ppm [1] | pest or weed control at 200 ppm [2] | inhibition at 20 ppm [3]

C/C=C/S(=O)(=O)N(C)Cc1ccc(-c2noc(C(F)(F)F)n2)cc1 [Compound 1.51, (E)-N-methyl-N-[[4-(5-(trifluoromethyl)-1,2,4-oxadiazol-3-yl]phenyl]methyl] prop-1-ene-1-sulfonamide]
≥ 80%: pest or weed control at 200 ppm [1] | pest or weed control at 200 ppm [2] | inhibition at 20 ppm [3]

CN(Cc1ccc(-c2noc(C(F)(F)F)n2)cc1)S(=O)(=O)CC1CC1 [Compound 1.52, 1-cyclopropyl-N-methyl-N-[[4-[5-(trifluoromethyl)-1,2,4-oxadiazol-3-yl]phenyl]methyl] methanesulfonamide]
≥ 80%: pest or weed control at 200 ppm [1] | pest or weed control at 200 ppm [2] | inhibition at 20 ppm [3]

CNS(=O)(=O)N(C)Cc1ccc(-c2noc(C(F)(F)F)n2)cc1 [Compound 1.56, 3-[4-[[methyl (methylsulfamoyl)amino]methyl]phenyl]-5-(trifluoromethyl)-1,2,4-oxadiazole]
≥ 80%: pest or weed control at 200 ppm [1] | pest or weed control at 200 ppm [2] | inhibition at 20 ppm [3]

CCN(Cc1ccc(-c2noc(C(F)(F)F)n2)cc1)S(=O)(=O)CC(=O)OC [Compound 1.59, methyl 2-[ethyl-[[4-[5-(trifluoromethyl)-1,2,4-oxadiazol-3-yl]phenyl]methyl]sulfamoyl]acetate]
≥ 80%: pest or weed control at 200 ppm [1] | pest or weed control at 200 ppm [2] | inhibition at 20 ppm [3]

CCN(Cc1ccc(-c2noc(C(F)(F)F)n2)cc1)S(=O)(=O)CC [Compound 1.61, N-ethyl-N-[[4-[5-(trifluoromethyl)-1,2,4-oxadiazol-3-yl]phenyl]methyl] ethanesulfonamide]
≥ 80%: pest or weed control at 200 ppm [1] | pest or weed control at 200 ppm [2] | inhibition at 20 ppm [3]

CCN(Cc1ccc(-c2noc(C(F)(F)F)n2)cc1)S(C)(=O)=O [Compound 1.62, N-ethyl-N-[[4-[5-(trifluoromethyl)-1,2,4-oxadiazol-3-yl]phenyl]methyl] methanesulfonamide]
≥ 80%: pest or weed control at 200 ppm [1] | pest or weed control at 200 ppm [2] | inhibition at 20 ppm [3]

CCN(Cc1ccc(-c2noc(C(F)(F)F)n2)cc1)S(=O)(=O)NC [Compound 1.63, 3-[4-[[ethyl (methylsulfamoyl)amino]methyl]phenyl]-5-(trifluoromethyl)-1,2,4-oxadiazole]
≥ 80%: pest or weed control at 200 ppm [1] | pest or weed control at 200 ppm [2] | inhibition at 20 ppm [3]

CCN(Cc1ccc(-c2noc(C(F)(F)F)n2)cc1)S(=O)(=O)N(C)C [Compound 1.64, N-(dimethylsulfamoyl)-N-[[4-[5-(trifluoromethyl)-1,2,4-oxadiazol-3-yl]phenyl]methyl] ethanamine]
≥ 80%: pest or weed control at 200 ppm [1] | pest or weed control at 200 ppm [2] | inhibition at 20 ppm [3]

CCCN(Cc1ccc(-c2noc(C(F)(F)F)n2)cc1)S(=O)(=O)C1CC1 [Compound 1.69, N-propyl-N-[[4-[5-(trifluoromethyl)-1,2,4-oxadiazol-3-yl]phenyl]methyl] cyclopropanesulfonamide]
≥ 80%: pest or weed control at 200 ppm [1] | pest or weed control at 200 ppm [2] | inhibition at 20 ppm [3]

CCCN(Cc1ccc(-c2noc(C(F)(F)F)n2)cc1)S(=O)(=O)CCOC [Compound 1.73, 2-methoxy-N-propyl-N-[[4-[5-(trifluoromethyl)-1,2,4-oxadiazol-3-yl]phenyl]methyl] ethanesulfonamide]
≥ 80%: pest or weed control at 200 ppm [1] | pest or weed control at 200 ppm [2] | inhibition at 20 ppm [3]

CCCN(Cc1ccc(-c2noc(C(F)(F)F)n2)cc1)S(=O)(=O)CC(=O)OC [Compound 1.76, methyl 2-[propyl-[[4-[5-(trifluoromethyl)-1,2,4-oxadiazol-3-yl]phenyl]methyl]sulfamoyl]acetate]
≥ 80%: pest or weed control at 200 ppm [1] | pest or weed control at 200 ppm [2] | inhibition at 20 ppm [3]

CCCN(Cc1ccc(-c2noc(C(F)(F)F)n2)cc1)S(C)(=O)=O [Compound 1.79, N-propyl-N-[[4-[5-(trifluoromethyl)-1,2,4-oxadiazol-3-yl]phenyl]methyl] methanesulfonamide]
≥ 80%: pest or weed control at 200 ppm [1] | pest or weed control at 200 ppm [2] | inhibition at 20 ppm [3]

CC(C)N(Cc1ccc(-c2noc(C(F)(F)F)n2)cc1)S(=O)(=O)c1ccn(C)n1 [Compound 1.82, N-isopropyl-1-methyl-N-[[4-[5-(trifluoromethyl)-1,2,4-oxadiazol-3-yl]phenyl]methyl] pyrazole-3-sulfonamide]
≥ 80%: pest or weed control at 200 ppm [1] | pest or weed control at 200 ppm [2] | inhibition at 20 ppm [3]
